{Fethoc} = N-terminal Fethoc capping group (publication's abbreviation); [C(1O2)] = modified PNA monomer acting as cytosine, C(pOq) type, 1O2; [A(5)] = modified PNA monomer acting as adenine, A(p) type, p=5; [A(6)] = modified PNA monomer acting as adenine, A(p) type, p=6; [G(6)] = modified PNA monomer acting as guanine, G(p) type, p=6; {NH2} = C-terminal non-substituted amino (amide) group

Data set [1] relates to melanogenesis in B16F10 cells. Description: Melanin content (melanogenesis) in B16F10 cells. The class given is cell-based, mouse. The conditions noted are these: 24 hours. Here is the method: “TYR-ASO 4” was evaluated for its ability to inhibit the melanogenesis in B16F10 cells as described below.
B16F10 cells grown in 60 mm culture dish containing 5 mL culture medium were treated either with “TYR-ASO 4” at 0 (negative control) or 1 to 1,000 aM, or with 10 or 100 μg/mL arbutin as a positive control. (2 culture dishes per dose) 24 hours later, the cells were subjected to lysis with 200 μL 1N NaOH. Each lysate was collected in 1.5 mL e-tube, and kept overnight at room temperature. The melanin content in each lysate was determined by absorbance at 475 nm on an ELISA reader. The experiment was repeated four times using cells at different passage. The four sets of the melanin content data were pooled for statistical analysis by student's t-test against the melanin content without treatment (negative control).

The test system of data set [2] is human dystrophin pre-mRNA. As to conditions: DMD patients, cited from earlier work.
Data set [3] relates to mouse dystrophin pre-mRNA. Kind of data set: Dystrophin nested PCR (Method A) in muscles of mdx mice. The conditions noted are these: subcutaneous 1,000 pmole/Kg BID for 3 days, quadriceps and gastrocnemius. The class given is in vivo. Here is the method:
“DMD-ASO 1” and “DMD-ASO 4” were evaluated for their ability to induce exon skipping in muscles of mdx mice by subcutaneous administration as follows. [ASO Treatment & Sampling Muscle Tissues] The injection solutions were prepared by diluting an aqueous mother stock solution of “DMD-ASO 1” or “DMD-ASO 4” in PBS to 500 nM. Male mdx mice were subcutaneously administered with vehicle only (negative control), “DMD-ASO 1” or “DMD-ASO 4” at 2 mL/Kg, 2× per day (BID) for 3 days. One day after the final dose, the animals were anesthetized with zoletil/rompun, and sacrificed to sample muscle tissues including the heart, diaphragm, gatrocnemius, quadriceps, and triceps. [RNA Extraction] Muscle samples were homogenized by grinding in a tube kept on ice, and subjected to total RNA extraction with 1 mL trizol reagent (Invitrogen) per ca 100 mg muscle tissue. [cDNA Synthesis by One-Step RT-PCR] 500 ng of RNA template was used in a 25 μL reverse transcription reaction using Super Script® One-Step RT-PCR kit with Platinum® Taq polymerase (Cat. Number 10928-042, Invitrogen) and a set of exon-specific primers [DMD-exon 21_forward: (5'→3') […] NO: 103); and DMD-exon 25_reverse: (5'→3') […] [Nested PCR Amplification] 1 μL of cDNA was further amplified in a 20 μL nested PCR (Cat. Number K2612, Bioneer) reaction against a set of primers [DMD-exon 22n_forward: (5'→3') […] NO: 105); and DMD-exon 25n_reverse: (5'→3') […] [Identification of Exon Skipping Product] The skipping of exon 23 was detected only in the animals treated with “DMD-ASO 1” and “DMD-ASO 4”. […] Mdx mice subcutaneously received “DMD-ASO 1” at 0 (negative control) or 10 pmole/Kg, 2× per day for 5 days. (2 animals per group) One day after the final dose, the animals were sacrificed for tissue sampling. The triceps samples were evaluated for the skipping of exon 23 according to the nested RT-PCR method described in “DMD Example 1”.

A further data set deals with human PD-1 mRNA. Description: PD-1 nested qPCR in Jurkat cells. The class given is cell-based. As to conditions: activated Jurkat cells, 100 and 1,000 aM, 24 hours. Here is the method:
[Cell Culture & ASO Treatment] Jurkat cells grown in 60 mm culture dish were activated with an anti-CD3 antibody (Cat. Number 16-0037, eBioscience) at […] and an anti-CD28 antibody (Cat. No. 16-0289, eBioscience) at 0.5 μg/mL for 48 hours. Then the culture medium was replaced with fresh medium, and treated with “PD-ASO 3” at 0 (negative control), 10, 100 or 1,000 aM for 24 hours. (4 culture dishes per ASO concentration) [RNA Extraction and cDNA Synthesis by One Step RT-PCR] Total RNA was extracted using RNAeasy mini prep kit (Qiagen, USA) according to the manufacturer's protocol. […] NO: 157); and PD-exon 5_reverse: (5'→3') […] NO: 158)]. Cycle conditions: 50° C. for 30 minutes and 94° C. for 2 minutes, which was followed by 30 cycles of 30 seconds at 94° C., 30 seconds at 53° C., and 1 minutes at 72° C. [Nested qPCR by SYBR] […] NO: 159); and PD-exon 2_reverse: (5'→3') […] NO: 160)] according to the following cycle conditions: 20 seconds at 95° C., 30 seconds at 56° C., and 40 seconds at 72° C. for 40 cycles. The qPCR reaction was probed with SYBR (Bio-Rad, USA).
Background: Quantitative PCR measures a nucleic acid by following its amplification.

The next data set deals with 10-mer complementary DNA. Kind of data set: Tm between PNA derivatives and 10-mer complementary DNA (N- or C-terminal). The class given is binding. As to conditions: uncorrected. The method in brief:
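Tm read by UV at 260 nm for duplexes formed by annealing (90 °C for a minute, slow cooling to ambient) of equimolar 4 μM PNA and complementary 10-mer DNA targeting N- or C-terminal, in 10 mM sodium phosphate, 100 mM NaCl, pH 7.16.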

The subject of a further data set is AR mRNA. Description: qPCR by SYBR Green for AR mRNA in MCF7 cells. As to conditions: 5 hours.
A further data set has as its system AR protein. Description: AR protein expression in skin of mice after subcutaneous administration (western blot). As to conditions: skin sampled 5 days later. The class given is in vivo, C57BL/6 mice. An excerpt: “AR-ASO 5” targets the AR pre-mRNA sequence conserved in humans and mice.
[Hair Removal and Grouping] In Day 0, 7 weeks old male C57BL/6 mice were anesthetized with zoletil/rompun, and the hair in the back was cut with a clipper and removed by carbo-waxing. In Day 5, mice with flawless (i.e., spotless) hair removal were selected and randomly assigned into five groups of 0 pmole/Kg (vehicle only, negative control), 1 pmole/Kg, 10 pmole/Kg, 100 pmole/Kg, and 1,000 pmole/Kg “AR-ASO 5”. (6 animals per group).
[ASO Injection Solution & Administration] An aqueous mother stock solution of “AR-ASO 5” was serially diluted in PBS supplemented with 0.1% Tween 80 to prepare “AR-ASO 5” solutions of 0 nM (vehicle only, negative control), 0.5 nM, 5 nM, 50 nM, or 500 nM. In Day 5, individual mice in each dose group were subcutaneously administered in the nape (i.e., near neck) with a single injection of the test article at 2 mL/Kg.
[Extraction of Skin Samples] In Day 10, the animals were sacrificed to obtain skin samples from the injection site and the hip as a non-injection site. The skin samples were frozen in liquid nitrogen immediately after the sampling. Each skin sample was micronized while maintaining the sample frozen with liquid nitrogen. The micronized samples were subjected to lysis with RIPA buffer supplemented with 1% SDS. The lysates were mixed with 5× sample buffer and boiled for 5 min.
[AR Western Blot] The lysates were subjected to AR western blot on a PVDF membrane. A total of 10 lysates were loaded on each 10% PAGE gel with two individual lysates from each group. AR protein (120K daltons) was probed with a polyclonal AR antibody (N-20, sc-816, Santa Cruz).
[Quantification of AR Protein Expression] Each AR band on a single PVDF membrane was normalized against individual β-actin band. […] Such double normalization was applied to the other two PVDF membranes to quantify the AR protein expression of individual samples by densitometry. […]

Setting [4] is: intravenous infusion 2 to 20 mg/Kg per week.
Setting [5] is: single subcutaneous injection 1,000 pmole/Kg.

Description for AR mRNA: [ASO Treatment and RNA Extraction] […] (2 culture dishes per concentration) 5 hours later, total RNA was extracted using “MiniBEST Universal RNA Extraction Kit” according to the manufacturer's instructions (Cat. Number 9767, Takara).
[cDNA Synthesis with OligodT]
The PCR reactions were probed by SYBR Green (Takara, Japan).

Turning to `OC[C@H]1O[C@@H](Oc2ccc(O)cc2)[C@H](O)[C@@H](O)[C@@H]1O` [arbutin], the “decrease of melanin content” value is about 15% in data set [1] (10 μg/mL) and 25% in data set [1] (100 μg/mL).

For Drisapersen, the “skipping of exon 51 (nested PCR of muscle biopsy)” value in data set [2] (subcutaneous 2 to 6 mg/Kg per week) is reported as “induced the skipping of exon 51”.

Eteplirsen: in data set [2] (setting [4]), the “skipping of exon 51 (IHC of muscle biopsy for full-length dystrophin)” value is “induced the skipping of exon 51” and the tolerability result was “well tolerated”.

Take “Fethoc-A(6)CT-TTG(6)-CA(6)G-A(6)GC(1O2)-CTC(1O2)-AA(6)-NH2 (antisense ACTTTGCAGAGCCTCAA; all peptide nucleic acid (PNA), [A(6)] at 1, 8, 10, 17, [G(6)] at 6, [C(1O2)] at 12, 15, 5' {Fethoc}, 3' {NH2}; peptide nucleic acid backbone) [DMD-ASO 4]”: the “skipping of dystrophin exon 23 (nested PCR Method A)” value in data set [3] is given as “detected”.

As for “Fethoc-C(1O2)TG(6)-GG(6)G-AG(6)T-CTG-A(5)G-NH2 (CTGGGGAGTCTGAG; splice-switching; all peptide nucleic acid (PNA), [C(1O2)] at 1, [G(6)] at 3, 5, 8, [A(5)] at 13, 5' {Fethoc}, 3' {NH2}; peptide nucleic acid backbone) [PD-ASO 1]”, the “decrease of PD-1 mRNA level (nested qPCR)” value in the data set on human PD-1 mRNA was about 60%.

As for “Fethoc-C(1O2)TT-A(5)CC-A(5)GG(6)-CA(5)A-NH2 (antisense CTTACCAGGCAA; all peptide nucleic acid (PNA), [C(1O2)] at 1, [A(5)] at 4, 7, 11, [G(6)] at 9, 5' {Fethoc}, 3' {NH2}; peptide nucleic acid backbone) [AR-ASO 5]”, in the data set on 10-mer complementary DNA, the “Tm Value, 10-mer DNA against C-Terminal” value came to 78.4 °C and the “Tm Value, 10-mer DNA against N-Terminal” value was determined as 84.4 °C. For the same compound, the “AR exon levels (SYBR Green), rebound” value in the data set with AR mRNA (1 aM (1,000 zM)) was “no rebound”. In the data set on AR mRNA (1 to 1,000 zM), the “decrease of AR exon levels (SYBR Green)” value is 60-80%. Further, the “decrease of AR protein expression, skin of the non-injection site” value in the data set on AR protein (single subcutaneous injection 100 pmole/Kg) is on record as about 40%. Also, in the data set on AR protein (setting [5]), the “decrease of AR protein expression, skin of the injection site” value is about 35% and the “decrease of AR protein expression, skin of the non-injection site” value is recorded as about 40%.

(Values after patent US12624068B2, “Exon skipping by peptide nucleic acid derivatives” (OliPass Corporation, priority 2016, dated 2026).)
